The source of these data is US20240101546A1, “HETEROARYL-ACETYLENES, PHARMACEUTICAL COMPOSITIONS THEREOF, AND THEIR THERAPEUTIC APPLICATIONS” (Eubulus Biotherapeutics Inc., priority 2020, published 2024).

Bounds are passed on as bounds.

The experiment relates to hepatocellular carcinoma cell line Hub-7. The experiment in a line: Cell proliferation assay, Hub-7 (CELL-TITER GLO). It counts as cell-based. As to conditions: Hub-7 cells, 24 h incubation, cell viability by CELL-TITER GLO, top concentration 10 μM; read-out: EC50, Inhibition of Hub-7 Cell Proliferation. The essentials:
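Hub-7 cells, 4,000 per well, seeded overnight, then exposed 24 h to compound from 10 μM top in 3-fold serial dilution. Viability read by CELL-TITER GLO luminescence; EC50 derived and binned into potency categories.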

Turning to `C#Cc1nc(C(=O)NCCc2cccc(Cl)c2)cs1` [Compound C110, N-(3-Chlorophenethyl)-2-ethynylthiazole-4-carboxamide], the EC50 lay in the range of 0.2 to 1 µM.

`C#Cc1nc(C(=O)NCc2ccccc2)c[nH]1` [Compound C111, N-Benzyl-2-ethynyl-1H-imidazole-4-carboxamide]: the EC50 is greater than 5 µM.

Regarding `C#Cc1nc(C(=O)NCc2ccccc2-c2ccccc2)cs1` [Compound C112, N-([1,1′-Biphenyl]-2-ylmethyl)-2-ethynylthiazole-4-carboxamide], the EC50 is 0.2 to 1 µM.

Turning to `C#Cc1nc(C(=O)NCc2cccc3ccccc23)cs1` [Compound C113, 2-Ethynyl-N-(naphthalen-1-ylmethyl)thiazole-4-carboxamide], the EC50 was no more than 0.2 µM.

Regarding `C#Cc1nc(C(=O)NCc2ccc(-c3ccccc3)cc2)cs1` [Compound C114, N-([1,1′-Biphenyl]-4-ylmethyl)-2-ethynylthiazole-4-carboxamide], the EC50 was no more than 0.2 µM.

As for `C#Cc1nc(C(=O)NCc2cccc(-c3ccccc3)c2)cs1` [Compound C115, N-([1,1′-Biphenyl]-3-ylmethyl)-2-ethynylthiazole-4-carboxamide], the EC50 is no more than 0.2 µM.

For `C#Cc1nc(C(=O)N(CCC(=O)OCC)Cc2ccccc2)cs1` [Compound C116, Ethyl 3-(N-benzyl-2-ethynylthiazole-4-carboxamido)propanoate], the EC50 fell in the range of 1 to 5 µM.

Turning to `C#Cc1nc(C(=O)NCc2ccc(C(=O)OC)cc2)cs1` [Compound C117, Methyl 4-((2-ethynylthiazole-4-carboxamido)methyl)benzoate], the EC50 fell in the range of 0.2 to 1 µM.

On to `C#Cc1nc(C(=O)NCc2ccc(N)cc2)cs1` [Compound C118, N-(4-Aminobenzyl)-2-ethynylthiazole-4-carboxamide], for which the EC50 was 0.2 to 1 µM.

For `C#Cc1nc(C(=O)NCc2ccn(C)n2)cs1` [Compound C119, 2-Ethynyl-N-((1-methyl-1H-pyrazol-3-yl)methyl)thiazole-4-carboxamide], the EC50 is greater than 5 µM.

Take `C#Cc1nc(C(=O)NCc2cnn(C)c2)cs1` [Compound C120, 2-Ethynyl-N-((1-methyl-1H-pyrazol-4-yl)methyl)thiazole-4-carboxamide]: the EC50 is greater than 5 µM.

As to `C#Cc1nc(C(=O)NCc2ccc(O)cc2)cs1` [Compound C121, 2-Ethynyl-N-(4-hydroxybenzyl)thiazole-4-carboxamide], the EC50 is 1 to 5 µM.

With `C#Cc1nc(C(=O)NCCc2ccc(O)c(OC)c2)cs1` [Compound C122, 2-Ethynyl-N-(4-hydroxy-3-methoxyphenethyl)thiazole-4-carboxamide], the EC50 lay in the range of 1 to 5 µM.

For the compound `C#Cc1nc(NC(=O)CCc2ccccc2)cs1` [Compound C123, N-(2-Ethynylthiazol-4-yl)-3-phenylpropanamide], the EC50 fell in the range of 0.2 to 1 µM.

With `C#Cc1nc(C(=O)NCc2cccc(C(=O)OC)c2)cs1` [Compound C124, Methyl 3-((2-ethynylthiazole-4-carboxamido)methyl)benzoate], the EC50 lay within 0.2 to 1 µM.

Consider `C#Cc1nc(C(=O)NCc2cccc(Cl)c2)cs1` [Compound C125, N-(3-Chlorobenzyl)-2-ethynylthiazole-4-carboxamide], for which the EC50 is no more than 0.2 µM.

For `C#Cc1nc(C(=O)NCc2ccccn2)cs1` [Compound C126, 2-Ethynyl-N-(pyridin-2-ylmethyl)thiazole-4-carboxamide], the EC50 was in the range of 1 to 5 µM.

`C#Cc1nc(C(=O)NCc2cccc(C#N)c2)cs1` [Compound C127, N-(3-Cyanobenzyl)-2-ethynylthiazole-4-carboxamide]: the EC50 is 0.2 to 1 µM.

As for `C#Cc1nc(C(=O)NCCc2ccc(N)cc2)cs1` [Compound C128, N-(4-Aminophenethyl)-2-ethynylthiazole-4-carboxamide], the EC50 fell in the range of 1 to 5 µM.

On to `C#Cc1nc(C(=O)NCCc2ccc([N+](=O)[O-])cc2)cs1` [Compound C129, 2-Ethynyl-N-(4-nitrophenethyl)thiazole-4-carboxamide], for which the EC50 is no more than 0.2 µM.

`C#Cc1nc(C(=O)Nc2cccc3[nH]ncc23)cs1` [Compound C130, 2-Ethynyl-N-(1H-indazol-4-yl)thiazole-4-carboxamide]: the EC50 was in the range of 1 to 5 µM.

Regarding `C#Cc1nc(C(=O)N(CC(=O)OCC)Cc2ccccc2)cs1` [Compound C131, Ethyl N-benzyl-N-(2-ethynylthiazole-4-carbonyl)glycinate], the EC50 lay within 1 to 5 µM.

With `C#Cc1ncc(C(=O)NCc2ccccc2)n1C` [Compound C132, N-Benzyl-2-ethynyl-1-methyl-1H-imidazole-5-carboxamide], the EC50 was greater than 5 µM.

For `C#Cc1nc(C(=O)N(CCO)Cc2ccccc2)cs1` [Compound C133, N-Benzyl-2-ethynyl-N-(2-hydroxyethyl)thiazole-4-carboxamide], the EC50 was 1 to 5 µM.

Turning to `C#Cc1nc(C(=O)Nc2cccc3cn[nH]c23)cs1` [Compound C134, 2-Ethynyl-N-(11H-indazol-7-yl)thiazole-4-carboxamide], the EC50 fell in the range of 1 to 5 µM.

On to `C#Cc1nc(C(=O)NC[C@@H](O)c2ccccc2)cs1` [Compound C135, (S)-2-Ethynyl-N-(2-hydroxy-2-phenylethyl)thiazole-4-carboxamide], for which the EC50 was 1 to 5 µM.

Consider `C#Cc1nc(C(=O)NCc2ccccc2NC(C)=O)cs1` [Compound C136, N-(2-Acetamidobenzyl)-2-ethynylthiazole-4-carboxamide], for which the EC50 is greater than 5 µM.

In the case of `C#Cc1nc(C(=O)N(C)Cc2ccccc2)cs1` [Compound C137, N-Benzyl-2-ethynyl-N-methylthiazole-4-carboxamide], the EC50 is 1 to 5 µM.

As for `C#Cc1nc(C(=O)NCCc2ccccc2)cs1` [Compound C138, 2-Ethynyl-N-phenethylthiazole-4-carboxamide], the EC50 lay in the range of 1 to 5 µM.

Consider `C#Cc1nc(C(=O)NCc2cccc3[nH]ccc23)cs1` [Compound C139, N-((1H-Indol-4-yl)methyl)-2-ethynylthiazole-4-carboxamide], for which the EC50 is greater than 5 µM.

In the case of `C#Cc1nc(C(=O)NCc2ccccc2N)cs1` [Compound C140, N-(2-Aminobenzyl)-2-ethynylthiazole-4-carboxamide], the EC50 was in the range of 1 to 5 µM.

For `C#Cc1ncc(C(=O)NCc2ccccc2)s1` [Compound C141, N-Benzyl-2-ethynylthiazole-5-carboxamide], the EC50 was 1 to 5 µM.

Turning to `C#Cc1nc(C(=O)NCc2ccccc2)co1` [Compound C142, N-Benzyl-2-ethynyloxazole-4-carboxamide], the EC50 is greater than 5 µM.

With `C#Cc1nc(C(=O)NCc2ccccc2Cl)cs1` [Compound C143, N-(2-Chlorobenzyl)-2-ethynylthiazole-4-carboxamide], the EC50 lay within 0.2 to 1 µM.

For the compound `C#Cc1nc(C(=O)NCc2ccccc2OC)cs1` [Compound C144, 2-Ethynyl-N-(2-methoxybenzyl)thiazole-4-carboxamide], the EC50 was in the range of 1 to 5 µM.

With `C#Cc1csc(C(=O)NCc2ccccc2)n1` [Compound C145, N-Benzyl-4-ethynylthiazole-2-carboxamide], the EC50 is greater than 5 µM.

In the case of `C#Cc1nc(C(=O)NCc2ccccc2)cs1` [Compound C148, N-Benzyl-2-ethynylthiazole-4-carboxamide], the EC50 is 1 to 5 µM.

As for `C#Cc1nc(C(=O)N2CCN(c3ccc(-c4c(C)ccc5c4cnn5C)cc3)CC2)cs1` [Compound D1, (4-(4-(1,5-Dimethyl-1H-indazol-4-yl)phenyl)piperazin-1-yl)(2-ethynylthiazol-4-yl)methanone], the EC50 was no more than 0.2 µM.

For the compound `C#Cc1nc(C(=O)N2CCN(c3ccc(-c4cc(C(=O)OC)cc5c4cnn5C)cc3)CC2)cs1` [Compound D2, Methyl 4-(4-(4-(2-ethynylthiazole-4-carbonyl)piperazin-1-yl)phenyl)-1-methyl-1H-indazole-6-carboxylate], the EC50 is no more than 0.2 µM.

Take `C#Cc1nc(C(=O)N2CCN(c3ccc(-c4cc(C(=O)NC)cc5ncsc45)cc3)CC2)cs1` [Compound D3, 7-(4-(4-(2-Ethynylthiazole-4-carbonyl)piperazin-1-yl)phenyl)-N-methylbenzo[d]thiazole-5-carboxamide]: the EC50 was in the range of 0.2 to 1 µM.

In the case of `C#Cc1nc(C(=O)N2CCN(c3ccc(-c4cc(C(=O)OC)cc5ncsc45)cc3)CC2)cs1` [Compound D4, Methyl 7-(4-(4-(2-ethynylthiazole-4-carbonyl)piperazin-1-yl)phenyl)benzo[d]-thiazole-5-carboxylate], the EC50 was no more than 0.2 µM.

Turning to `C#Cc1nc(C(=O)N2CCN(c3ccc(-c4cc(C(N)=O)cc5ncsc45)cc3)CC2)cs1` [Compound D5, 7-(4-(4-(2-Ethynylthiazole-4-carbonyl)piperazin-1-yl)phenyl)benzo[d]thiazole-5-carboxamide], the EC50 lay within 1 to 5 µM.

As for `C#Cc1nc(C(=O)N2CCN(c3ccc(-c4cc(C(=O)N(C)C)cc5ncsc45)cc3)CC2)cs1` [Compound D6, 7-(4-(4-(2-Ethynylthiazole-4-carbonyl)piperazin-1-yl)phenyl)-N,N-dimethyl-benzo[d]thiazole-5-carboxamide], the EC50 is no more than 0.2 µM.

Take `C#Cc1ncc(C(=O)N2CCN(c3ccc(-c4cccc5ncsc45)cc3)CC2)s1` [Compound D7, (4-(4-(benzo[d]thiazol-7-yl)phenyl)piperazin-1-yl)(2-ethynylthiazol-5-yl)methanone]: the EC50 is no more than 0.2 µM.

As for `C#Cc1ncc(C(=O)N2CCN(c3ccc(-c4cccc5scnc45)cc3)CC2)s1` [Compound D8, (4-(4-(Benzo[d]thiazol-4-yl)phenyl)piperazin-1-yl)(2-ethynylthiazol-5-yl)methanone], the EC50 lay within 0.2 to 1 µM.

For the compound `C#Cc1nc(C(=O)N2CCN(c3ccc(-c4cccc5ncsc45)cc3Cl)CC2)cs1` [Compound D9, (4-(4-(Benzo[d]thiazol-7-yl)-2-chlorophenyl)piperazin-1-yl)(2-ethynylthiazol-4-yl)methanone], the EC50 is no more than 0.2 µM.

`C#Cc1nc(C(=O)N2CCN(c3ccc(-c4cccc5ncsc45)cn3)CC2)cs1` [Compound D10, (4-(5-(Benzo[d]thiazol-7-yl)pyridin-2-yl)piperazin-1-yl)(2-ethynylthiazol-4-yl)-methanone]: the EC50 is no more than 0.2 µM.
